From patent US12275685B2, “Oligo-benzamide analogs and their use in cancer treatment” (Board of Regents, The University of Texas System, priority 2018, dated 2025)

Columns and labels:
TNBC cells = assay: ER stress induction in TNBC cells (electron microscopy, western blots); assay type: cell-based
Protocol: FIGS. 36A-H: ERX-41 induces ER stress in TNBC. (FIGS. 36A-C) Volcano plots show the relative effect of 4 h treatment of 1 μM ERX-41 compared to vehicle in MDA-MB-231 (FIG. 36A), BT-549 (FIG. 36B) TNBC and HMEC (FIG. 36C) cell lines. (FIG. 36D) Gene ontology analyses show the top regulated pathways. (FIG. 36E) Heatmap of the top ER stress and UPR genes in these three TNBC cell lines after 2 h and 4 h treatment with 1 μM ERX-41 treatment. […] (FIG. 36G) Time course of the effect of 1 μM ERX-41 on the mRNA expression of canonical ER stress genes, HSPAS and DDIT3 and UPR stress sensor-sXBP1 in MDA-MB-231, BT-549 and HMEC cells.
The basal level of expression of endoplasmic reticulum stress and unfolded protein response correlates with TK41 activity (FIG. 28). Modulation of the level of these stress proteins affects the activity of TK41. Thus, the basal level of expression of endoplasmic reticulum stress and unfolded protein response proteins may serve as a biomarker to predict response to TK41. […] Without wishing to be bound by any particular theory, the mechanism of action of TK41 may operate comprise targeting either ER or TLX and inducing endoplasmic reticulum stress, subsequent apoptosis, and blocking autophagic fusion (FIG. 30).
ERX-41 induces endoplasmic reticulum stress in TNBC. To understand the mechanism of action of ERX-41 in TNBC, the inventors performed unbiased RNA sequencing studies in three TNBC (SUM-159, MDA-MB-231, and BT549) and normal HMEC cell lines (FIGS. 36A-C). […] Heatmaps show the induction of ER stress and UPR genes in these three TNBC cell lines (FIG. 36E). Evaluation of ER stress induction was then performed with ultrastructural studies using electron microscopy (EM) studies.

D2A1 xenografts = assay: D2A1 syngeneic tumor model; assay type: in vivo, mice; details: 10 mg/kg daily
Protocol: FIGS. 35A-P: ERX-41 is potent against TNBC in vivo. (FIG. 35A) Following establishment of subcutaneous MDA-MB-231 xenograft tumors (200 mm^3), 10 mg/kg single dose ERX-41 was administered either by oral or intraperitoneal route. The tumor was harvested 0, 0, 5, 1, 5, 3, 6 and 24 h after drug administration and the drug levels assayed by LC-MS/MS and graphed. (FIGS. 35B-E) Following establishment of MDA-MB-231 xenografts in mammary fat pad in vivo (100 mm^3 size), daily administration of 10 mg/kg ERX-41 or vehicle control (N=8 each group) was initiated. Tumor volumes were measured using digital calipers and graphed (FIG. 35B). Tumor weights (FIG. 35C), body weights (FIG. 35D) and extirpated tumors (FIG. 35E) at end of study are also shown. (FIGS. 35F-H) Following establishment of D2A1 syngeneic xenografts in mammary fat pad in vivo (100 mm^3 size), daily administration of 10 mg/kg ERX-41 or vehicle control (N=8 each group) was initiated. Tumor volumes were measured using digital calipers and graphed (FIG. 35F) along with tumor weights (FIG. 35G) and body weights (FIG. 35H). (FIGS. 35I-P) Effect of ERX-41 on the growth (FIG. 351, FIG. 35K, FIG. 35M, FIG. 35O) and tumor weights (FIG. 35J, FIG. 35L, FIG. 35N, FIG. 35P) of four distinct TNBC PDXs compared to vehicle. *p<0.05. **p<0.01; ***p<0.001. […]

Which results are given for `CC(C)COc1cc(C(=O)Nc2ccc(C(=O)N[C@H]3CC[C@H](C)CC3)cc2OCC(C)C)ccc1NC(=O)c1ccc([N+](=O)[O-])c(OCCO)c1` [TK41]?
induction of ER stress and UPR proteins (p-PERK, IRE1a, eiF2a, CHOP) (TNBC cells; 1 μM, western blotting, TNBC cells): induces ER stress and downstream UPR pathways; induction of endoplasmic reticulum stress (TNBC cells; TNBC MD-MBA-231 cells): induce endoplasmic reticulum stress; dilation of the ER by electron microscopy (TNBC cells; within 4 h of treatment, TNBC cells): induced dramatic dilation of the ER; growth of D2A1 xenografts (D2A1 xenografts): significantly reduce the growth
